{"source": "patent US11649245B2", "about": "“Cyclopropylamine compound as LSD1 inhibitor and use thereof” (HELIOEAST PHARMACEUTICAL CO., LTD., priority 2018, dated 2023)", "tested_on": "NCI-H1417 cells", "assay": "Antiproliferation activity on NCI-H1417 cells (CellTiter-Glo, 10 days)", "assay_type": "cell-based, human", "conditions": "incubated for 10 days", "procedure": "Experimental purpose: to detect the antiproliferation activity of the compounds on NCI-H1417 cells.\nExperimental materials: RPMI 1640 culture medium, fetal bovine serum, Promega CellTiter-Glo reagent. NCI-H1417 cell line purchased from ATCC. Envision multi-label reader (PerkinElmer).\nExperimental method: the compounds were dissolved to 10 mM, then the compounds were diluted 5 times with DMSO in a compound plate, the compounds were diluted 3-fold with Bravo from a starting concentration of 2 mM to the 10th concentration, 250 nL of the solutions were transferred to the upper and lower duplicate wells on a blank 384 cell plate by Echo transfer plate, cell suspension of per well/1000 cells/50 μL was added to the transferred 250 nL DMSO/compound, the compounds were diluted 200-fold, i.e., the initial action concentration was 10 μM. The cell plate was placed in a carbon dioxide incubator and incubated for 10 days. 25 μL of Promega CellTiter-Glo reagent was added to each well on the cell plate and was shaken at room temperature for 10 minutes to stabilize the luminescence signal. Readings were performed by PerkinElmer Envision multi-label analyzer.\nData analysis: the equation (Max-Ratio)/(Max-Min)*100% was used to convert the original data into the inhibition rate, the value of IC50 can be obtained by curve fitting of four-parameters (the 205 mode in XLFITS, iDBS).", "note": "Structures can show the parent of a compound that is named as a salt.", "data": [{"smiles": "O=C(O)c1ccc(CN2CCC3(CC2)CC(N[C@@H]2C[C@H]2c2ccccc2)CO3)cc1", "note": "(stereo partly shown) [Hydrochloride of the compound 6]", "values": [{"measurement": "IC50", "value": 9.11, "unit": "nM"}]}]}
